Marks after values point to notes of the source that are not given here.
What was measured:
[1] = Chemical stability of alcaftadine solution in non-sterilized or gamma irradiated LDPE bottles and glass vials (HPLC); format: physicochemical; settings: Glass Vials; 5° C.; 6 days
[2] = tested on: adult volunteers with a history of allergic conjunctivitis; assay: Conjunctival Allergen Challenge (CAC) in adult volunteers; format: in vivo, human
Experimental: The anti-allergic effect of a single dose of each of the three concentrations of alcaftadine ophthalmic solutions from Example 1 was assessed in a Conjunctival Allergen Challenge (“CAC”) performed on adult volunteers with a history of allergic conjunctivitis. Subjects were selected after two visits to confirm reactivity to the allergen challenge. […] Subjects were then challenged with allergen by instilling reconstituted commercially available allergen into each eye on two separate visits 16 hours and 15 minutes after the bilateral instillation of alcaftadine, PATANOL® olopatadine hydrochloride ophthalmic solution 0.1% (Alcon, Inc., Fort Worth, Tex.) or vehicle, and the clinical response assessed.
Assessments were made at 7, 15 and 20 minutes post challenge based on investigator evaluations of redness using a 5 point scale.
Nasal symptoms of sneezing, rhinorrhea, pruritis (nasal and ear/palate) and nasal congestion were assessed by subjects using standardized scales.

[3] = tested on: guinea pigs systemically sensitized to rabbit skin squames and topically challenged with rabbit allergens; assay: Anti-allergic activity against acute-phase allergic conjunctivitis (edema and erythema) in sensitized guinea pigs; format: in vivo, guinea pig
Experimental: The effect of alcaftadine against acute-phase reactions of allergic conjunctivitis (edema and erythema) was compared to the effect of other known anti-allergens in guinea pigs that were systemically sensitized to rabbit skin squames and topically challenged 17 days later with rabbit allergens.
Anesthetized male albino guinea pigs (Dunkin-Hartley) weighing about 230 to 250 g were injected intramuscularly at the left quadriceps with 50 μl of purified rabbit allergens. The rabbit allergens consisted of Al(OH)3-adsorbed rabbit squames (Halab, Brussels, Belgium), which had been homogenized and washed clean of preservative (0.5% (V/V) phenol) with sterile physiologic saline.
Alcaftadine was […] administered to each eye in dosages ranging from 0.005 mg/kg to 1.0 mg/kg at 24 hours and 1 hour before challenge. Other test compounds included oxatomide, ketotifen, astemizole, cetirizine, loratadine and terfenadine, administered at dosages of 0.1 mg/kg and 1.0 mg/kg.
At day 17 post sensitization the left eye was challenged by instilling 25 μl of 100% normal rabbit serum. At the same time as the allergen challenge, the right eye was instilled with 25 μl of 1.5 mg/ml histamine dihydrochloride (98%, Sigma) dissolved in deionised, Millipore-filtered water.
Thirty minutes after challenge, edema and erythema were assessed in the tarsal and bulbar conjunctiva of both eyes and scored as absent (0), weak (1), moderate (2), severe (3), or very severe (4) by a trained technician.

[4] = tested on: murine model of allergic conjunctivitis; assay: Eosinophil and neutrophil recruitment 24 hours post-CAC in murine model of allergic conjunctivitis, late phase; format: in vivo, mice; settings: alcaftadine 2.5 mg/ml, 5 μL topical at 1 and 2 hours pre-challenge
Experimental: Alcaftadine ophthalmic solution was evaluated to determine if topical treatment could reduce early phase and late phase allergic inflammation in a murine model of allergic conjunctivitis. Evans Blue Dye Leakage was used to assess the impact on vascular permeability during the early phase inflammatory response Conjunctiva was taken at 24 hours, stained, and assessed for presence of neutrophil and eosinophil infiltration to evaluate late phase anti-inflammatory activity.
All mice were sensitized with short ragweed (SRW) in aluminum hydroxide via intraperitoneal administration (Day 0, 7, and 14) and eye drop instillation (Day 8 and 15). On Day 20, mice were again sensitized with eye drops of SRW.
On Day 27, two topical administrations of the clinical dose of alcaftadine 2.5 mg/ml or vehicle were instilled at 1 and 2 hours pre-challenge. Alcaftadine and vehicle were administered topically at a 5 μL saturating dose as treatment arms based on a randomization code. […]
Vascular leak was determined by means of Evans Blue Dye Extravasation following allergen challenge for N=6 animals except the alcaftadine treatment arm, where N=4 animals were sacrificed and tested (two animals died during the procedure). […] The numbers of eosinophils and neutrophils were determined both by light microscopy of Giemsa or H&E stained sections or by immunohistochemistry using cell specific monoclonal antibodies. […]

[5] = Chemical stability of alcaftadine solution in non-sterilized or gamma irradiated LDPE bottles and glass vials (HPLC); format: physicochemical
Description: The existence of the N-oxide structures as the primary oxidative degradation peak was confirmed as having the same HPLC relative retention time as a synthetically produced N-oxide structures and also confirmed using mass spectroscopy.
To investigate the effects of the gamma irradiation process used to sterilize the LDPE bottles, the chemical stability of alcaftadine was studied using different lots of bottles, either gamma irradiated or non-sterilized.
The following materials were used in this study.
2.5 mg/ml alfactadine solution
Non-sterilized 5 ml LDPE bottles (DUPONT 20-6064) from Bunder Glas GmbH (Germany)
Non-sterilized 5 ml LDPE bottles (DUPONT 20-6064) from Rexam (France)
Sterilized (gamma irradiated at 25 kGy) LDPE bottles (DUPONT 20-6064) from Bunder Glas GmbH
Scintillation vials—20 ml clear glass with Teflon coated cap Millex GV syringe filter unit
Chemical stability results for alcaftadine solution stored in either non-sterilized bottles (Rexam or Bunder Glas) or gamma-irradiated bottles (Bunder Glas) are summarized in Table 2. All samples were assayed by HPLC after 6 and 14 days of storage at 50° C. Light exposure was not controlled during storage. The solution was stored in either Rexam bottles (without sterilization), Bunder Glas bottles (sterilized with y Irradiation or without sterilization) and in glass vials.

[6] = administered 16 hours prior to challenge
[7] = Bunder Glas bottles, Y Irradiation (gamma, 25 kGy), 50° C., 6 days
[8] = Bunder Glas bottles, Y Irradiation (gamma, 25 kGy), 50° C., 14 days
[9] = Bunder Glas bottles, no sterilization, 50° C., 6 days
[10] = Bunder Glas bottles, no sterilization, 50° C., 14 days
[11] = Rexam bottles, no sterilization, 50° C., 6 days
[12] = Rexam bottles, no sterilization, 50° C., 14 days

With `CN1CCC(=C2c3ccccc3CCn3c(C=O)cnc32)CC1` [Alcaftadine, 6,11-dihydro-11-(1-methyl-4-piperidinylidene)-5H-imidazo[2,1-b][3]benzazepine-3-carboxaldehyde] the Alcaftadine [1] was 2.52 mg/mL, the Oxide [1] was 0.008% and the “itching scores versus vehicle or PATANOL” value ([2]; 0.25% treatment group, challenged 15 minutes post-treatment) was “lower itching scores than vehicle or PATANOL®”. For the same molecule, the “conjunctival redness scores versus vehicle or PATANOL” value ([2]; 0.25% treatment group, challenged at 15 minutes post-treatment) was “lower scores than vehicle or PATANOL®”, the “inhibition of conjunctival redness” value [2, 6] was “dose-related inhibition of conjunctival redness” and the “inhibition of ocular itching” value [2, 6] was “dose-related inhibition of ocular itching”. For the same molecule, the “mean itching scores versus vehicle or PATANOL” value ([2]; all concentrations, 16 hours prior to challenge, 3, 5 and 7 minutes post-challenge, 5 point scale) was “lower mean itching scores”, the “mean conjunctival redness scores” value ([2]; all concentrations, 16 hours prior to challenge, 7, 15 and 20 minutes post challenge, 5 point scale) was “various degrees of reduction in mean conjunctival redness scores at most assessment times” and the “relief of nasal congestion and rhinorrhea” value ([2]; all concentrations, various time points) was “some degree of relief”. The effect on sneezing ([2]; baseline sneezing incidence likely too low) was “No effect on sneezing was demonstrated”, the “inhibition of ocular itching” value ([2]; challenged 15 minutes post-treatment) was “dose-related inhibition of ocular itching as compared to placebo” and the “reduction of rhinorrhea, nasal congestion, and pruritis of the palate/ear” value ([2]; majority of timepoints at both onset and duration visits) was “significant reduction”. The “dose from which acute allergic symptoms were significantly alleviated” value ([3]; dosed 24 hours and 1 hour before challenge, edema and erythema scored 30 minutes after challenge) was 0.1 mg/kg, the “potency compared with astemizole, cetirizine and loratadine” value ([3]; on an equivalent mg/kg basis) was “significantly more potent” and the “potency compared with oxatomide, ketotifen and terfenadine” value ([3]; on an equivalent mg/kg basis) was “more potent”. The “eosinophil or neutrophil recruitment in the late phase response” value [4] was “did not prevent eosinophil or neutrophil recruitment”, the “eosinophil or neutrophil recruitment in the late phase response” value ([4]; listed as alcaftadine) was “does not appear to inhibit eosinophil or neutrophil recruitment” and the “N-oxide formation in gamma irradiated Bunder Glas bottles compared with glass vials and non-sterilized Rexam and Bunder Glas bottles” value ([5]; 50° C.) was “significantly increased levels of N-oxide formation”. For the same molecule, the Alcaftadine [5, 7] was 2.41 mg/mL, the Oxide [5, 7] was 0.199% and the Alcaftadine [5, 8] was 2.39 mg/mL. It also gave an Oxide [5, 8] of 0.202%, an Alcaftadine [5, 9] of 2.48 mg/mL and an Oxide [5, 9] of 0.018%. The Alcaftadine [5, 10] was 2.48 mg/mL, the Oxide [5, 10] was 0.042% and the Oxide ([5]; Glass Vials, 50° C., 6 days) was 0.024%. The Alcaftadine ([5]; Glass Vials, 50° C., 6 days, sample showed significant evaporation) was 2.57* mg/mL, the Alcaftadine ([5]; Initial Solution) was 2.47 mg/mL and the Oxide ([5]; Initial Solution) was 0.02%. It also gave an Alcaftadine [5, 11] of 2.46 mg/mL, an Oxide [5, 11] of 0.015% and an Alcaftadine [5, 12] of 2.48 mg/mL. The Oxide [5, 12] was 0.033% and the susceptibility to oxidation ([5]; primary degradation product N-oxide) was “susceptible to oxidation”.
